Data set [1] deals with HCC827 cells. Briefly: CellTiter 96 Aqueous Cell Proliferation Assay (MTS), Example 2. Particulars: in combination with BA (100 μM and 50 μM), 72 hours. The data set is classed as cell-based.
For data set [2], the system named is HCC827 non-small cell lung carcinoma cells. As to the kind of experiment: Number of vital (proliferating) cells relative to control, Example 1A. Type of data set: cell-based. Particulars: for Live Cell: HCC827 (NSCLC), GFT 0 nM, 72 hours, percentage relative to control. Here is the method:
(§1) HCC827 non-small cell lung carcinoma cells were obtained from ATCC, Rockville, Md. […] Central dose rate of approximately 1.30 Gy/minute (130 rad/minute).
Following treatment, the number of vital cells was measured. Percentage of the vital (proliferating) cells under different treatments was calculated relative to the control (untreated) cells.
(§2) After the addition of the compounds as described above, irradiation and incubation, cells were trypsinized and aliquots of the samples were taken for counting and PI (Propidium Iodide) exclusion assay. One part of the cells was centrifuged and resuspended in 0.5 ml ice-cold PBS containing 5 ug/ml of PI. The other part of the cells was fixed in ice-cold 70% ethanol and stored in a freezer overnight. For cell cycle analysis, cells were stained with propidium iodide (PI) by standard procedures. Cellular DNA content was determined by flow cytometry using BD LSRII FACS, and the percentages of cells in G1, S or G2/M were determined using ModFit software.

The test system is the same in data set [3]. Briefly: FACS cell cycle analysis by DNA content and BrdU incorporation, Example 1A. Type of data set: cell-based. Set-up: key to Sub-G1 / G1: % of cells in cell cycle phase. Particulars: for BrdU (−) S / G1 / G2/M / S / Sub-G1: HCC827 (NSCLC), GFT 0 nM, 72 hours. The protocol: as §1, §2
All cell samples were analyzed as described in [5,6] using a BD LSR II or BD Aria (BD Biosciences, San Jose, Calif.). All flow cytometry analyses were carried out using triplicate samples containing at least 30,000 cells each and the final percentages of the cell cycle distribution were normalized to singlets viable cell population, excluding cell debris and polyploid cells according established procedure.
50 μl of BrdU (Sigma Chemical Co., St. Louis, Mo.) stock solution (1 mM) was added to achieve final concentration of 10 μM BrdU. Then cells were incubated for 30 min at 37° C. and fixed in ice-cold 70% ethanol and stored at 4° C. overnight. Fixed cells were centrifuged and washed once in 2 ml PBS, then resuspended in 0.7 ml of denaturation solution (0.2 mg/ml pepsin in 2 N HCl) for 15 min at 37° C. in the dark, then 1.04 ml 1M Tris buffer (Trizma base, Sigma Chemical Co.) was added to terminate the hydrolysis. Cells were washed in 2 ml PBS and resuspended in 100-μ1(1:100 dilution) of anti-BrdU antibody (DakoCytomation, Carpinteria, Calif.) in TBFP permeable buffer (0.5% Tween-20, 1% bovine serum albumin and 1% fetal bovine serum in PBS), incubated for 25 min at room temperature in the dark and washed in 2 ml PBS. The primary antibody-labeled cells were resuspended in 100 μl ALEXA FLUOR® F(ab)2, fragment of goat anti-mouse IgG (H+L) (1:200 dilution, 2 mg/mL, Molecular Probes, Eugene, Oreg.) in TBFP buffer and incubated for 25 min at room temperature in the dark and washed in 2 ml PBS, then resuspended in 0.5 ml ice-cold PBS containing 1 μg/ml 4′,6-diamidino-2-phenylindole (DAPI) for at least 30 min [3, 6].

Data set [4] shares this test system. Briefly: TUNEL apoptosis detection (FACS), Example 1A. The data set is classed as cell-based. Particulars: for TUNEL (+): HCC827 (NSCLC), GFT 0 nM, 72 hours.
Excerpt: as §1
The cells were labeled for apoptosis detection with the “In Situ Cell Death Detection Kit, Fluorescein” (Roche Diagnostics Corporation, Roche Applied Science, Indianapolis, Ind.) and analyzed based on the modified protocol from Dr. Darzynkiewicz laboratory. Briefly, fixed cells were centrifuged and washed once in phosphate-buffered saline (PBS) containing 1% bovine serum albumin (BSA), then resuspended in 2 ml permeabilization buffer (0.1% Triton X-100 and 0.1% sodium citrate in PBS) for 25 min at room temperature and washed twice in 0.2 ml PBS/1% BSA. The cells were resuspended in 50 μl TUNEL reaction mixture (TdT enzyme and labeling solution) and incubated for 60 min at 37° C. in a humidified dark atmosphere in an incubator. The labeled cells were washed once in PBS/1% BSA, then resuspended in 0.5 ml ice-cold PBS containing 1 μg/ml 4′,6-diamidino-2-phenylindole (DAPI) for at least 30 min. All cell samples were analyzed with a BD LSR II (BD Biosciences, San Jose, Calif.) and the final percentages of the cell cycle distribution were normalized to singlets viable cell population, excluding cell debris and polyploid cells according established procedure. All flow cytometry analyses were carried out using triplicate samples containing at least 30,000 cells each (typical results of 3 or more independent experiments are shown).

Data set [5] deals with locally advanced or metastatic pancreatic cancer. Particulars: cited from earlier work.
The subject of the next data set is NSCLC tumors. Particulars: after failure of chemotherapy, cited from earlier work.
Data set [6] deals with HCC827 cells. Briefly: FACS-based cell cycle analysis (PI/BrdU), Example 1. Particulars: GFT 0 nM, 72 hours; for G1 / G2/M / S: percentage of cells.
Procedure: 50 μl of BrdU (Sigma Chemical Co., St. Louis, Mo.) stock solution (1 mM) is added to achieve final concentration of 10 μM BrdU. Then cells are incubated for 30 min at 37° C. and fixed in ice-cold 70% ethanol and stored at 4° C. overnight. Fixed cells are centrifuged and washed once in 2 ml PBS, then resuspended in 0.7 ml of denaturation solution (0.2 mg/ml pepsin in 2 N HCl) for 15 min at 37° C. in the dark, then 1.04 ml 1M Tris buffer (Trizma base, Sigma Chemical Co.) is added to terminate the hydrolysis. Cells are washed in 2 ml PBS and resuspended in 100-μl (1:100 dilution) of anti-BrdU antibody (DakoCytomation, Carpinteria, Calif.) in TBFP permeable buffer (0.5% Tween-20, 1% bovine serum albumin and 1% fetal bovine serum in PBS), incubated for 25 min at room temperature in the dark and washed in 2 ml PBS. The primary antibody-labeled cells are resuspended in 100 μl ALEXA FLUOR® F(ab′)2 fragment of goat anti-mouse IgG (H+L) (1:200 dilution, 2 mg/mL, Molecular Probes, Eugene, Oreg.) in TBFP buffer and incubated for 25 min at room temperature in the dark and washed in 2 ml PBS, then resuspended in 0.5 ml ice-cold PBS containing 1 μg/ml 4′,6-diamidino-2-phenylindole (DAPI) for at least 30 min. All cell samples are analyzed with a BD LSR II (BD Biosciences, San Jose, Calif.). All flow cytometry analyses are carried out using triplicate samples containing at least 30,000 cells each (typical results of independent experiments are shown).
For data set [7], the system named is HCC827 cells. Briefly: Viable cell count / growth of HCC827 cells, Example 1. The data set is classed as cell-based. Here is the method:
Lung adenocarcinoma HCC827 cells are cultured in Dulbecco Modified Eagle Medium with 10% fetal bovine serum. […] Cells are plated at a seeding density 10^5 per P100 or at 10^4 per P60 in growth media and incubated 12-18 h at 37° C., 5% CO2. BA and the EGFR inhibitor, IRESSA, are added as a single dose for 72 hours. DMSO is used as a control. Cells are irradiated with 3Gy and 5Gy gamma-irradiation using γ-Irradiator Gammacell 40 Exactor (MDS Nordion, Canada). Following treatment, cells are analyzed with BrdU ELISA assay (Roche Applied Science), FACS based cell cycle assay or TUNEL.
After the addition of drugs, irradiation and incubation, cells are taken for counting and PI (Propidium Iodide) exclusion assay. One part of the cells is centrifuged and resuspended in 0.5 ml ice-cold PBS containing 5 μg/ml of PI. The other part of the cells is fixed in ice-cold 70% ethanol and stored in a freezer overnight. For cell cycle analysis, cells are stained with propidium iodide (PI) as described hereinabove. Cellular DNA content is determined by flow cytometry using BD LSRII FACS, and the percentages of cells in G1, S or G2/M are determined using ModFit software.

Data set [8] has as its system HCC827 cells. As to the kind of experiment: TUNEL apoptosis assay (FACS), Example 1. The data set is classed as cell-based. Particulars: GFT 0 nM, 72 hours.
Procedure: Lung adenocarcinoma HCC827 cells are cultured in Dulbecco Modified Eagle Medium with 10% fetal bovine serum. […] Cells are plated at a seeding density 10^5 per P100 or at 10^4 per P60 in growth media and incubated 12-18 h at 37° C., 5% CO2. BA and the EGFR inhibitor, IRESSA, are added as a single dose for 72 hours. DMSO is used as a control. […] Following treatment, cells are analyzed with BrdU ELISA assay (Roche Applied Science), FACS based cell cycle assay or TUNEL.
To detect apoptosis, the cells are labeled with the “In Situ Cell Death Detection Kit, Fluorescein” (Roche Diagnostics Corporation, Roche Applied Science, Indianapolis, Ind.). Briefly, fixed cells are centrifuged and washed once in phosphate-buffered saline (PBS) containing 1% bovine serum albumin (BSA), then resuspended in 2 ml permeabilization buffer (0.1% Triton X-100 and 0.1% sodium citrate in PBS) for 25 min at room temperature and washed twice in 0.2 ml PBS/1% BSA. The cells are resuspended in 50 μl TUNEL reaction mixture (TdT enzyme and labeling solution) and incubated for 60 min at 37° C. in a humidified dark atmosphere in an incubator. The labeled cells are washed once in PBS/1% BSA, then resuspended in 0.5 ml ice-cold PBS containing 1 μg/ml 4′,6-diamidino-2-phenylindole (DAPI) for at least 30 min. All cell samples are analyzed with a BD LSR II (BD Biosciences, San Jose, Calif.). […]
The conditions of data set [9]: in vivo; cited from earlier work.
Another data set deals with chemo-refractory NSCLC. Particulars: phase II, monotherapy, 57 evaluable patients; cited from earlier work.
Another data set concerns NSCLC. Particulars: cited from earlier work.
The mark [10] stands for this setting: Caucasian patients with NSCLC tumors.
The mark [11] stands for this setting: Homo sapiens, HCC827, 72 h, read-out: Viable Cell.
The mark [12] stands for this setting: gefitinib-treated HCC827 cells, FIG. 2c.
Setting [13] is: phase III versus placebo, NSCLC after failed prior chemotherapy.
Setting [14] is: combination treatment arm (TARCEVA with gemcitabine).

Entries after “also recorded” stand apart in the source; their conditions may differ. Like-named read-outs stand apart in the source and are kept apart here.

Take `COc1cc([C@@H]2c3cc4c(cc3[C@H](O)[C@H]3COC(=O)[C@@H]23)OCO4)cc(OC)c1OC` [PPP, (5R,5aS,8aR,9R)-5,8,8a,9-Tetrahydro-9-hydroxy-5-(3,4,5-trimethoxyphenyl)-furo[3′,′: 6,7]naphtho[2,3-d]-1,3-dio xol-6(5aH)-one]: the “effect of BA on antiproliferative effects of growth factor receptors inhibitors” value with HCC827 cells [1] is on record as “potentiation of antiproliferative effects”.
As for `NC(=O)c1ccc(I)c(N=O)c1` [BNO, 4-iodo-3-nitrosobenzamide], in [2] (BNO 25 uM), the “Live Cell” value amounted to 76. Also, in [2] (BNO 50 uM), the “Live Cell” value was 40. In [3] (BNO 25 uM), the “BrdU (−) S” value was 1.30, the G1 was found to be 61.10, the G2/M is given as 7.20 and the S is given as 29.30. Further, in data set [3] (BNO 25 uM), the Sub-G1 is 1.10. In addition, in data set [3] (BNO 50 uM), the “BrdU (−) S” value stood at 3.50, the G1 is recorded as 38.74, the G2/M worked out at 11.41 and the S stood at 44.24. For the same compound, the Sub-G1 in [3] (BNO 50 uM) is 2.10. Also, the “TUNEL (+)” value in data set [4] (BNO 25 uM) is reported as 2.9. In addition, the “TUNEL (+)” value in data set [4] (BNO 50 uM) was found to be 7.7.
For the compound `Nc1ccn([C@@H]2O[C@H](CO)[C@@H](O)C2(F)F)c(=O)n1` [gemcitabine], in [5] (gemcitabine plus placebo), the Median survival is reported as 5.9 months and the one-year survival was 19.7%.
As for `COc1cc2ncnc(Nc3ccc(F)c(Cl)c3)c2cc1OCCCN1CCOCC1` [GFT, gefitinib], the major objective responses result in the data set on NSCLC tumors (setting [10]) is on record as “approximately 10%”; in the data set on NSCLC tumors (Japanese patients with NSCLC tumors), 25-30%.
Regarding `NC(=O)c1ccc(I)c([N+](=O)[O-])c1` [BA, 4-iodo-3-nitrobenzamide], in the data set on HCC827 cells [6] (BA 50 uM), the Sub-G1 came out at 2.4, the G1 is listed as 46.3, the G2/M amounted to 8.8 and the S was 40.6. In the data set on HCC827 cells [6] (BA 100 uM), the Sub-G1 was 15.8, the G1 came out at 43.8, the G2/M is reported as 12.5 and the S is recorded as 19.9. Also, the “effect of BA on the activity of gefitinib (IRESSA)” value with HCC827 cells [7] (HCC827 cell line, FIG. 1) is on record as “potentiates the activity of gefitinib; also recorded: potentiates the activity of the EGFR inhibitor, IRESSA”. Also, in the data set on HCC827 cells [7] (setting [11]), the viability at 50 µM was 65% and the viability at 100 µM amounted to 25%. In addition, in the data set with HCC827 cells [8] (BA 50 uM), the “TUNEL (+)” value was found to be 5.7. Moreover, the “TUNEL (+)” value in the data set with HCC827 cells [8] (BA 100 uM) is on record as 32.8. In addition, the “Live Cell” value in data set [2] (BA 50 uM) came out at 65. For the same compound, the “Live Cell” value in data set [2] (BA 100 uM) was 25. Moreover, the “effect of BA on antiproliferative effect of growth factor inhibitors” value in data set [2] (HCC827 cells, FIG. 2a-2c) is “potentiates antiproliferative effect of growth factor inhibitors”. In [2] (non-small lung carcinoma cells), the “effect of BA on antitumor activity of gefitinib” value is “potentiates antitumor activity of gefitinib”. Also, in data set [3] (BA 50 uM), the “BrdU (−) S” value is recorded as 1.95, the G1 is reported as 46.26, the G2/M stood at 8.82 and the S is reported as 40.62. In [3] (BA 50 uM), the Sub-G1 stood at 2.36. In addition, in data set [3] (BA 100 uM), the “BrdU (−) S” value is on record as 8.05, the G1 worked out at 43.76, the G2/M is 12.49 and the S came to 19.92. Moreover, the Sub-G1 in [3] (BA 100 uM) is reported as 15.79. The cell cycle arrest result in [3] (gefitinib treated HCC827 cells) was “enhanced cell cycle arrest”. Moreover, in [3] (setting [12]), the “number of cells in G1 and S phases of cell cycle” value is “reduced number of cells in G1 and S phases”; the “number of dead cells (sub-G1)” value is given as “induced number of dead cells (sub-G1)”. The “TUNEL (+)” value in data set [4] (BA 50 uM) amounted to 5.7. Also, the “TUNEL (+)” value in data set [4] (BA 100 uM) is listed as 32.8. Besides, in data set [4] (gefitinib treated HCC827 cells), the apoptosis entry is given as “induced apoptosis”. Besides, in [9], the “crossing of the blood-brain barrier” value was “known to cross the blood-brain barrier”; the distribution into tissues result was “distributes rapidly and widely into tissues, including the brain and cerebrospinal fluid (CSF)”.
Consider `C#Cc1cccc(Nc2ncnc3cc(OCCOC)c(OCCOC)cc23)c1` [TARCEVA, erlotinib], for which the major objective responses entry in the data set on NSCLC tumors (setting [10]) is “approximately 10%”. For the same compound, in the data set on chemo-refractory NSCLC, the “patients achieving disease stabilisation” value is 51% and the “patients surviving for at least 12 months” value was 40%. Moreover, the “patients affected by rash” value in the data set on NSCLC (NSCLC primary registration trial) was 75%. For the same compound, the tolerability result with NSCLC (clinical trials) is recorded as “generally well tolerated”. In the data set with NSCLC (setting [13]), the “improvement in median survival” value is given as 42% and the “improvement in one-year survival” value was 45%. Besides, in data set [5] (setting [14]), the Median survival is 6.4 months and the one-year survival is reported as 25.6%. The “improvement in overall survival” value in data set [5] (in combination with gemcitabine, compared with gemcitabine alone) was 23.5%.
Regarding `COC(=O)[C@@]1(O)C[C@H]2O[C@]1(C)n1c3ccccc3c3c4c(c5c6ccccc6n2c5c31)C(=O)NC4` [K252a, (9S-(9α,10β,12α))-2,3,9,10,11,12-hexahydro-10-hydroxy-10-(methoxycarbonyl)-9-methyl-9,12-epoxy-1H-diindolo[1,2,3-fg:3′,2′,1′-kl]pyrrolo[3,4-i][1,6]benzodiazocin-1-one], the “effect of BA on antiproliferative effects of growth factor receptors inhibitors” value in the data set with HCC827 cells [1] was “potentiation of antiproliferative effects”.

The values are drawn from US20120130144A1, “TREATMENT OF LUNG CANCER WITH A NITROBENZAMIDE COMPOUND IN COMBINATION WITH A GROWTH FACTOR INHIBITOR” (BiPar Sciences, Inc., priority 2009, published 2012).
